The target in the test is T1, Bcl-2-related protein A1 (Mus musculus, UniProt Q07440).
T1 sequence (Q07440 whole entry): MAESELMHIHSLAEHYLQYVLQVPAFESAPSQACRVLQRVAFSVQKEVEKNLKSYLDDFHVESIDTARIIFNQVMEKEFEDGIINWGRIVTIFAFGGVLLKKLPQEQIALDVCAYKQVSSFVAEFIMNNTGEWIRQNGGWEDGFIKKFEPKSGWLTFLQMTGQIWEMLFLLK
In words: Bfl-1 binding inhibitors, SAR follow-up, biochemical, fluorescence polarization (AID 1070). (In fluorescence polarisation assays a small probe gives low polarisation when free and higher when bound to something large.)

Each structure is given as a SMILES string.

Molecule `COCC=Nc1c(Cl)c(O)n(-c2ccc(Cl)c(Cl)c2)c1O` [3-chloranyl-1-(3,4-dichlorophenyl)-4-(2-methoxyethylamino)pyrrole-2,5-dione] yielded an IC50 of 12.6 µM.

Take `Cc1ccc(N=C2C(=O)N(c3ccc(C)cc3)C(=O)C2Cl)cc1` (configuration not stated) [3-chloranyl-1-(4-methylphenyl)-4-[(4-methylphenyl)amino]pyrrole-2,5-dione]: the IC50 was 1.7 µM.

One may read the IC50 as the concentration that gives 50% inhibition. Read a low IC50 as higher potency.

The values above are taken from BindingDB's records for doi:10.7270/Q2X065GM (Sanford-Burnham Center for Chemical Genomics, 2008).
